Results on three molecules are retold here after patent publication US20170151200A1, “PROPHYLACTIC OR THERAPEUTIC AGENT FOR IDIOPATHIC INFLAMMATORY MYOPATHIES” (EA Pharma Co., Ltd., priority 2012, published 2017).

The subject of assay [1] is patients with polymyositis, dermatomyositis and inclusion body myositis. As to conditions: cited from earlier work.
Assay [2] concerns C-protein-induced mouse myositis model (CIM mouse). In words: Forelimb muscle strength by grip dynamometer in CIM mouse. Type of assay: in vivo. The conditions noted are these: 20 days after immunization. How it is done:
(§1) Using C-protein-induced mouse myositis model (C-protein-induced Myositis: CIM), the effect of BCAA on the inflammation of muscular tissues was examined. For antigen immunization of C57BL/6 mouse (female, 8-week-old), an adjuvant containing 200 μg C-protein and 100 μg killed tuberculosis bacterium (Mycobacterium butyricum), and Complete Freund's adjuvant (CFA) as a component was intradermally injected to the hindpaw sole and tail base, C-protein-free CFA injected to the base of forelimb, and 0.25 μg pertussis toxin was intraperitoneally injected. As an adjuvant control without immunization with an antigen, CFA was intradermally injected to the same sites. […] After 21 days from immunization, the muscle was collected, and the levels of inflammation of quadriceps and flexor muscles were evaluated by the inflammation score.
After 20 days from immunization, the muscle strength of the forelimb of each mouse was measured by a veterinary grip dynamometer MK-380CM/R (Muromachi Kikai Co., Ltd.). The measurement was performed 6 times for each animal, and the average thereof was determined. […]
The muscle strength of the forelimb of each mouse was measured after 20 days from the immunization in Example 5 using veterinary grip dynamometer MK-380CM/R (Muromachi Kikai Co., Ltd.). The measurement was performed 6 times for each animal, and the average thereof was determined.

For assay [3] the test system is unchanged. In words: Inflammation score of muscular tissue in C-protein-induced mouse myositis model (CIM). The class given is in vivo. As to conditions: 0.75 g/kg BCAA or 20 mg/kg PSL oral consecutively from 3 days after immunization, 21 days after immunization, vs Vehicle group, FIG. 1. The procedure: Using C-protein-induced mouse myositis model (C-protein-induced Myositis: CIM), the effect of BCAA on the inflammation of muscular tissues was examined. For antigen immunization of C57BL/6 mouse (female, 8-week-old), an adjuvant containing 200 μg C-protein and 100 μg killed tuberculosis bacterium (Mycobacterium butyricum), and Complete Freund's adjuvant (CFA) as a component was intradermally injected to the hindpaw sole and tail base, C-protein-free CFA injected to the base of forelimb, and 0.25 μg pertussis toxin was intraperitoneally injected. As an adjuvant control without immunization with an antigen, CFA was intradermally injected to the same sites. From three days after immunization, 0.75 g/kg BCAA (mixture of isoleucine, leucine and valine at a weight ratio of isoleucine:leucine:valine=1:2:1.2) or 20 mg/kg Prednisolone (PSL) was orally administered consecutively, and they were used as the BCAA administration group and the PSL administration group, respectively. In addition, 0.5% methylcellulose and 5% gamma cyclodextrin were orally administered instead of BCAA and the like to give the Vehicle administration group. After 21 days from immunization, the muscle was collected, and the levels of inflammation of quadriceps and flexor muscles were evaluated by the inflammation score. […]

Assay [4] has the same test system. Briefly: Sectional area of fast muscle fiber (MHC IIB-positive) of triceps in CIM mouse. Type of assay: in vivo. As to conditions: triceps 21 days after immunization, 0.75 g/kg BCAA or 20 mg/kg PSL oral, histogram shift toward the left side = atrophy, FIG. 4. How it is done: as §1
Since steroid myopathy is predominantly developed in the fast muscle fiber (MHC IIB-positive fiber), atrophy of the muscle fiber of the CIM mouse was evaluated by measuring the sectional area of the muscle fiber. The boundary area of the fast muscle fiber and the muscle fiber of the section of the triceps collected 21 days after the immunization was labeled by immune fluorescent staining using anti-MHC IIB antibody and anti-Laminin antibody (Sigma), and the sectional area of the MHC IIB-positive muscle fiber was measured using Image J software (NIH). […]

The test system is the same in assay [5]. In words: Muscle weight (quadriceps, hamstring/flexor muscles, triceps) in CIM mouse. Type of assay: in vivo. The conditions noted are these: 21 days after immunization. The procedure: as §1
Quadriceps, flexor muscles and triceps were collected from the CIM mouse and control mouse (Ctrl) after 21 days from immunization, and the muscle weight was measured. […]
Quadriceps, hamstrings, and triceps were collected from the CIM mouse and control mouse (Ctrl) of Example 5 after 21 days from the immunization, and the muscle weight was measured.

Consider Anakinra: IL-1 receptor antagonist, for which, in assay [1] (polymyositis and dermatomyositis, Ann Rheum Dis. 2011;70:A80-A81), the anti-inflammatory effect result is recorded as “has not been observed”.
For the molecule `C[C@]12C=CC(=O)C=C1CC[C@@H]1[C@@H]2[C@@H](O)C[C@@]2(C)[C@H]1CC[C@]2(O)C(=O)CO` [PSL, Prednisolone], the “strength of the forelimb muscle” value in assay [2] (CIM mouse of Example 5, 0.25, 0.75 or 2.25 g/kg BCAA + 20 mg/kg PSL, or 20 mg/kg PSL alone, oral, FIG. 7) is on record as “did not increase”. Also, the “muscle strength of the forelimb” value in assay [2] (CIM mouse, 0.75 g/kg BCAA or 20 mg/kg PSL oral, FIG. 3) was “improvement effect was weak”. The inflammation score entry in assay [3] is “significantly suppressed”. Further, the “distribution of fast muscle fiber sectional area (muscle fiber atrophy)” value in assay [4] is listed as “tendency was stronger”. For the same molecule, the muscle weight entry is listed as “did not increase” in assay [5] (CIM mouse of Example 5, 0.25, 0.75 or 2.25 g/kg BCAA + 20 mg/kg PSL, or 20 mg/kg PSL alone, oral, FIG. 6) and “did not show improvement” in assay [5] (CIM mouse, 0.75 g/kg BCAA or 20 mg/kg PSL oral, quadriceps, flexor muscles, triceps, FIG. 2).
Regarding “Infliximab: anti-TNF antibody effective for rheumatoid arthritis”, in assay [1] (patients with polymyositis, dermatomyositis and inclusion body myositis, Ann Rheum Dis. 2008;67(12):1670-7), the “effect on inflammation in patients” value was “aggravation of inflammation and activation of type I interferons”.
